Experimental data reported in US10745382B2 (BRISTOL-MYERS SQUIBB COMPANY, priority 2015, dated 2020).
Where two headings read alike, the source gives them in different places.

Biological target: T1, PD-1/PD-L1 (Homo sapiens, UniProt Q9NZQ7)
T1 construct: made in house; host or cells: HEK293T
Test: PD-1/PD-L1 Homogenous Time-Resolved Fluorescence (HTRF) binding assay
Conditions: PD-L1-His 10 nM, PD-1-Ig 20 nM, read-out: Range or IC50
Method: The ability of the compounds of formula (I) to bind to PD-L1 was investigated using a PD-1/PD-L1 Homogenous Time-Resolved Fluorescence (HTRF) binding assay.
Homogenous Time-Resolved Fluorescence (HTRF) Binding Assay.
All binding studies were performed in an HTRF assay buffer consisting of dPBS supplemented with 0.1% […] bovine serum albumin and 0.05% (v/v) Tween-20. […] HTRF detection was achieved using europium crypate-labeled anti-Ig (1 nM final) and allophycocyanin (APC) labeled anti-His (20 nM final). Antibodies were diluted in HTRF detection buffer and 5 μl was dispensed on top of the binding reaction. […] Additional binding assays were established between the human proteins PD-1-Ig/PD-L2-His (20 & 5 nM, respectively) and CD80-His/PD-L1-Ig (100 & 10 nM, respectively). […]

T1 sequence (Q9NZQ7 with tags, fused parts or gaps): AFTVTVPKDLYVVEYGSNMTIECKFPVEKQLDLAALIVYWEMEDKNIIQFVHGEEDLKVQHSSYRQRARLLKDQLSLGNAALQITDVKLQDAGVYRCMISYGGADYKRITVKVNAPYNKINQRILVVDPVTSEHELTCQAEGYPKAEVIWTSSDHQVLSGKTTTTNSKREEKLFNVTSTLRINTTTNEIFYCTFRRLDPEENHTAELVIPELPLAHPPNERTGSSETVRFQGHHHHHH

Structure (SMILES)	IC50 (value given as range class) [nM]	IC50 (numeric IC50) [nM]
Cc1c(COc2cc(OCc3cncc(C#N)c3)c(CNCCCN(C)C)cc2Cl)cccc1-c1cccc(OCCCN2CCC(O)C2)c1 (stereo in doubt) [Example 3001, (R)-5-((4-chloro-2-(((3-(dimethylamino)propyl)amino)methyl)-5-((3′-(3-(3-hydroxypyrrolidin-1-yl)propoxy)-2-methyl-[1,1′-biphenyl]-3-yl)methoxy)phenoxy)methyl)nicotinonitrile]	0.21 to 10	
Cc1c(COc2cc(OCc3cncc(C#N)c3)c(CN[C@@H](CCCNC(=N)N)C(=O)O)cc2Cl)cccc1-c1cccc(OCCCN2CCC(O)C2)c1 (stereo in doubt) [Example 3002, (S)-2-((5-chloro-2-((5-cyanopyridin-3-yl)methoxy)-4-((3′-(3-((R)-3-hydroxypyrrolidin-1-yl)propoxy)-2-methyl-[1,1′-biphenyl]-3-yl)methoxy)benzyl)amino)-5-guanidinopentanoic Acid]	0.21 to 10	
Cc1c(COc2cc(OCc3cncc(C#N)c3)c(CN[C@@](C)(CO)C(=O)O)cc2Cl)cccc1-c1cccc(OCCCN2CCC(O)C2)c1C (stereo in doubt) [Example 3003, (S)-2-((5-chloro-2-((5-cyanopyridin-3-yl)methoxy)-4-((3′-(3-((R)-3-hydroxypyrrolidin-1-yl)propoxy)-2,2′-dimethyl-[1,1′-biphenyl]-3-yl)methoxy)benzyl)amino)-3-hydroxy-2-methylpropanoic Acid]	0.21 to 10	
Cc1c(COc2cc(OCc3cncc(C#N)c3)c(CN[C@@H](CO)C(=O)O)cc2Cl)cccc1-c1cccc(OCCCN2CCC(O)C2)c1C (stereo in doubt) [Example 3004, (S)-2-((5-chloro-2-((5-cyanopyridin-3-yl)methoxy)-4-((3′-(3-((R)-3-hydroxypyrrolidin-1-yl)propoxy)-2,2′-dimethyl-[1,1′-biphenyl]-3-yl)methoxy)benzyl)amino)-3-hydroxypropanoic Acid]	0.21 to 10	
Cc1c(COc2cc(OCc3cncc(C#N)c3)c(CN[C@](C)(CO)C(=O)O)cc2Cl)cccc1-c1cccc(OCCCN2CCC(O)C2)c1C (stereo in doubt) [Example 3005, (R)-2-((5-chloro-2-((5-cyanopyridin-3-yl)methoxy)-4-((3′-(3-((R)-3-hydroxypyrrolidin-1-yl)propoxy)-2,2′-dimethyl-[1,1′-biphenyl]-3-yl)methoxy)benzyl)amino)-3-hydroxy-2-methylpropanoic Acid]	0.21 to 10	
Cc1c(COc2cc(OCc3cncc(C#N)c3)c(CN3CCCC[C@H]3C(=O)O)cc2Cl)cccc1-c1cccc(OCCCN2CCC(O)C2)c1C (stereo in doubt) [Example 3006, (S)-1-(5-chloro-2-((5-cyanopyridin-3-yl)methoxy)-4-((3′-(3-((R)-3-hydroxypyrrolidin-1-yl)propoxy)-2,2′-dimethyl-[1,1′-biphenyl]-3-yl)methoxy)benzyl)piperidine-2-carboxylic Acid]	0.21 to 10	
Cc1c(COc2cc(OCc3cncc(C#N)c3)c(CNCCCN(C)C)cc2Cl)cccc1-c1cccc(OCCCN2CCC(O)C2)c1C (stereo in doubt) [Example 3007, (R)-5-((4-chloro-2-(((3-(dimethylamino)propyl)amino)methyl)-5-((3′-(3-(3-hydroxypyrrolidin-1-yl)propoxy)-2,2′-dimethyl-[1,1′-biphenyl]-3-yl)methoxy)phenoxy)methyl)nicotinonitrile]	0.21 to 10	
Cc1c(COc2cc(OCc3cncc(C#N)c3)c(CN[C@@](C)(CO)C(=O)O)cc2Cl)cccc1-c1cccc(OCCCN2CCC(O)C2)c1C#N (stereo in doubt) [Example 3008, (S)-2-((5-chloro-4-((2′-cyano-3′-(3-((R)-3-hydroxypyrrolidin-1-yl)propoxy)-2-methyl-[1,1′-biphenyl]-3-yl)methoxy)-2-((5-cyanopyridin-3-yl)methoxy)benzyl)amino)-3-hydroxy-2-methylpropanoic Acid]	0.21 to 10	
Cc1c(COc2cc(OCc3cncc(C#N)c3)c(CN[C@@H](CO)C(=O)O)cc2Cl)cccc1-c1cccc(OCCCN2CCC(O)C2)c1C#N (stereo in doubt) [Example 3009, (S)-2-((5-chloro-4-((2′-cyano-3′-(3-((R)-3-hydroxypyrrolidin-1-yl)propoxy)-2-methyl-[1,1′-biphenyl]-3-yl)methoxy)-2-((5-cyanopyridin-3-yl)methoxy)benzyl)amino)-3-hydroxypropanoic Acid]	0.21 to 10	
Cc1c(COc2cc(OCc3cncc(C#N)c3)c(CN[C@](C)(CO)C(=O)O)cc2Cl)cccc1-c1cccc(OCCCN2CCC(O)C2)c1C#N (stereo in doubt) [Example 3010, (R)-2-((5-chloro-4-((2′-cyano-3′-(3-((R)-3-hydroxypyrrolidin-1-yl)propoxy)-2-methyl-[1,1′-biphenyl]-3-yl)methoxy)-2-((5-cyanopyridin-3-yl)methoxy)benzyl)amino)-3-hydroxy-2-methylpropanoic Acid]	0.21 to 10	
Cc1c(COc2cc(OCc3cncc(C#N)c3)c(CN[C@@](C)(CO)C(=O)O)cc2Cl)cccc1-c1cccc(OCCCN2CCC(O)C2)c1C(F)(F)F (stereo in doubt) [Example 3011, (S)-2-((5-chloro-2-((5-cyanopyridin-3-yl)methoxy)-4-((3′-(3-((R)-3-hydroxypyrrolidin-1-yl)propoxy)-2-methyl-2′-(trifluoromethyl)-[1,1′-biphenyl]-3-yl)methoxy)benzyl)amino)-3-hydroxy-2-methylpropanoic Acid]		9
Cc1c(COc2cc(OCc3cncc(C#N)c3)c(CN[C@@H](CO)C(=O)O)cc2Cl)cccc1-c1cccc(OCCCN2CCC(O)C2)c1C(F)(F)F (stereo in doubt) [Example 3012, (S)-2-((5-chloro-2-((5-cyanopyridin-3-yl)methoxy)-4-((3′-(3-((R)-3-hydroxypyrrolidin-1-yl)propoxy)-2-methyl-2′-(trifluoromethyl)-[1,1′-biphenyl]-3-yl)methoxy)benzyl)amino)-3-hydroxypropanoic Acid]	0.21 to 10	
Cc1c(COc2cc(OCc3cncc(C#N)c3)c(CN[C@](C)(CO)C(=O)O)cc2Cl)cccc1-c1cccc(OCCCN2CCC(O)C2)c1C(F)(F)F (stereo in doubt) [Example 3013, (R)-2-((5-chloro-2-((5-cyanopyridin-3-yl)methoxy)-4-((3′-(3-((R)-3-hydroxypyrrolidin-1-yl)propoxy)-2-methyl-2′-(trifluoromethyl)-[1,1′-biphenyl]-3-yl)methoxy)benzyl)amino)-3-hydroxy-2-methylpropanoic Acid]	0.21 to 10	
Cc1c(COc2cc(OCc3cncc(C#N)c3)c(CN3CCCC[C@H]3C(=O)O)cc2Cl)cccc1-c1cccc(OCCCN2CCC(O)C2)c1C(F)(F)F (stereo in doubt) [Example 3014, (S)-1-(5-chloro-2-((5-cyanopyridin-3-yl)methoxy)-4-((3′-(3-((R)-3-hydroxypyrrolidin-1-yl)propoxy)-2-methyl-2′-(trifluoromethyl)-[1,1′-biphenyl]-3-yl)methoxy)benzyl)piperidine-2-carboxylic Acid]	10 to 100	
Cc1c(COc2cc(OCc3cncc(C#N)c3)c(CN[C@H](CO)C(=O)O)cc2Cl)cccc1-c1cccc(OCCN2CCOCC2)c1 [Example 1001, (R)-2-((5-chloro-2-((5-cyanopyridin-3-yl)methoxy)-4-((2-methyl-3′-(2-morpholinoethoxy)-[1,1′-biphenyl]-3-yl)methoxy)benzyl)amino)-3-hydroxypropanoic Acid]	10 to 100	
